Experimental data taken from PubChem BioAssay AID248 (DTP/NCI, 2004).
Toxic doses and inconclusive results are not listed. Cut-off read from the data, not from the text of the source: active = T/C of 150% or more; inactive = T/C below 125%.

Test system: L1210 leukemia ip in BDF1 mice, survival T/C
Test: NCI In Vivo Anticancer Drug Screen. Data for tumor model L1210 Leukemia (intraperitoneal) in B6D2F1 (BDF1) mice
Conditions: endpoint: mean survival time, higher = longer survival
How it was run: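 Mice bearing the transplanted tumor received compound or vehicle. Survival of the treated group was divided by that of the vehicle-treated control group to give the ratio.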

[1] = dose: 25.0 mg/kg/injection, schedule: Q04DX003 (ip), vehicle: saline
[2] = dose: 100.0 mg/kg/injection, schedule: Q01DX001 (ip), vehicle: saline
[3] = dose: 100.0 mg/kg/injection, schedule: Q04DX003 (ip), vehicle: Klucel (hydroxypropylcellulose) (HPC)
[4] = dose: 200.0 mg/kg/injection, schedule: Q04DX003 (ip), vehicle: Klucel (hydroxypropylcellulose) (HPC)
[5] = dose: 400.0 mg/kg/injection, schedule: Q04DX003 (ip), vehicle: Klucel (hydroxypropylcellulose) (HPC)
[6] = dose: 200.0 mg/kg/injection, schedule: Q01DX001 (ip), vehicle: saline
[7] = dose: 400.0 mg/kg/injection, schedule: Q01DX001 (ip), vehicle: saline
[8] = dose: 100.0 mg/kg/injection, schedule: Q01DX001 (ip), vehicle: Klucel (hydroxypropylcellulose) (HPC)
[9] = dose: 200.0 mg/kg/injection, schedule: Q01DX001 (ip), vehicle: Klucel (hydroxypropylcellulose) (HPC)
[10] = dose: 100.0 mg/kg/injection, schedule: Q01DX009 (ip), vehicle: Klucel (hydroxypropylcellulose) (HPC)
[11] = dose: 200.0 mg/kg/injection, schedule: Q01DX009 (ip), vehicle: Klucel (hydroxypropylcellulose) (HPC)
[12] = dose: 400.0 mg/kg/injection, schedule: Q01DX009 (ip), vehicle: Klucel (hydroxypropylcellulose) (HPC)
[13] = dose: 50.0 mg/kg/injection, schedule: Q04DX003 (ip), vehicle: Klucel (hydroxypropylcellulose) (HPC)

Measured: T/C

CC1=NCCN=C(C)CC(C)(C)[N-]CC[N-]C(C)(C)C1.[Cl-].[Cl-].[Co+3].[O-][Cl+3]([O-])([O-])O
inactive: dose: 150.0 mg/kg/injection, schedule: Q04DX002 (ip), vehicle: Klucel (hydroxypropylcellulose) (HPC) 97 % of control | dose: 300.0 mg/kg/injection, schedule: Q04DX002 (ip), vehicle: Klucel (hydroxypropylcellulose) (HPC) 94 % of control

CC(=O)CC(=O)n1c(=O)cc(C)c2ccccc21
inactive: dose: 75.0 mg/kg/injection, schedule: Q04DX003 (ip), vehicle: saline with Tween-80 117 % of control | dose: 150.0 mg/kg/injection, schedule: Q04DX003 (ip), vehicle: saline with Tween-80 98 % of control | dose: 300.0 mg/kg/injection, schedule: Q04DX003 (ip), vehicle: saline with Tween-80 98 % of control

C/C(=N\[N+](C)(C)C)c1ccc(C)cc1
inactive: dose: 12.5 mg/kg/injection, schedule: Q01DX001 (ip), vehicle: saline 112 % of control | dose: 25.0 mg/kg/injection, schedule: Q01DX001 (ip), vehicle: saline 104 % of control | [1] 107 % of control | dose: 50.0 mg/kg/injection, schedule: Q01DX001 (ip), vehicle: saline 108 % of control | dose: 50.0 mg/kg/injection, schedule: Q04DX003 (ip), vehicle: saline 100 % of control | [2] 101 % of control | dose: 100.0 mg/kg/injection, schedule: Q04DX003 (ip), vehicle: saline 105 % of control

CCN(/N=C/c1ccc([N+](=O)[O-])o1)C(N)=O
inactive: dose: 25.0 mg/kg/injection, schedule: Q04DX002 (ip), vehicle: saline with Tween-80 100 % of control | dose: 50.0 mg/kg/injection, schedule: Q04DX002 (ip), vehicle: saline with Tween-80 103 % of control

O=S(=O)(Nc1ccc(Cl)cc1Cl)c1ccccc1
inactive: [3] 103 % of control | [4] 103 % of control | [5] 103 % of control

CCC(=O)OCN1C(=O)C2C3CCC(O3)C2C1=O (stereo unspecified)
inactive: dose: 87.5 mg/kg/injection, schedule: Q01DX009 (ip), vehicle: other 98 % of control | dose: 175.0 mg/kg/injection, schedule: Q01DX009 (ip), vehicle: other 111 % of control

O=c1cc(CCc2ccccc2)cc[nH]1
inactive: [2] 97 % of control | [6] 103 % of control | [7] 111 % of control

CC(=O)Oc1cccc(/C=C/C(=O)O)c1
inactive: dose: 100.0 mg/kg/injection, schedule: Q01DX009 (ip), vehicle: saline with Tween-80 91 % of control | dose: 100.0 mg/kg/injection, schedule: Q04DX003 (ip), vehicle: saline with Tween-80 98 % of control | dose: 200.0 mg/kg/injection, schedule: Q01DX009 (ip), vehicle: saline with Tween-80 91 % of control | dose: 200.0 mg/kg/injection, schedule: Q04DX003 (ip), vehicle: saline with Tween-80 102 % of control | dose: 400.0 mg/kg/injection, schedule: Q01DX009 (ip), vehicle: saline with Tween-80 90 % of control | dose: 400.0 mg/kg/injection, schedule: Q04DX003 (ip), vehicle: saline with Tween-80 91 % of control

O=C1c2ccccc2C(=O)c2c1ccc(C1C(=O)c3ccccc3C1=O)c2-c1c(C2C(=O)c3ccccc3C2=O)ccc2c1C(=O)c1ccccc1C2=O
inactive: [2] 95 % of control | [6] 95 % of control | [7] 97 % of control

O=P1(N(CCCl)CCCl)N(Cc2ccccc2)c2ccccc2N1Cc1ccccc1
inactive: [8] 102 % of control | [3] 102 % of control | [9] 94 % of control | [4] 98 % of control | dose: 400.0 mg/kg/injection, schedule: Q01DX001 (ip), vehicle: Klucel (hydroxypropylcellulose) (HPC) 100 % of control | [5] 101 % of control

C=C(Br)CN(C)C(C)=O
inactive: dose: 6.25 mg/kg/injection, schedule: Q01DX009 (ip), vehicle: saline 98 % of control | dose: 6.25 mg/kg/injection, schedule: Q04DX003 (ip), vehicle: saline 101 % of control | dose: 12.5 mg/kg/injection, schedule: Q01DX009 (ip), vehicle: saline 98 % of control | dose: 12.5 mg/kg/injection, schedule: Q04DX003 (ip), vehicle: saline 106 % of control | dose: 25.0 mg/kg/injection, schedule: Q01DX009 (ip), vehicle: saline 93 % of control | [1] 98 % of control

COc1ccccc1-n1c(O)c(N=Nc2ccc(Br)cc2)c(=O)n(-c2ccc(I)cc2)c1=S
inactive: dose: 50.0 mg/kg/injection, schedule: Q01DX001 (ip), vehicle: Klucel (hydroxypropylcellulose) (HPC) 102 % of control | [8] 112 % of control | [9] 102 % of control

COc1ccc(NC(=O)Nc2cc([N+](=O)[O-])ccc2C)cc1[N+](=O)[O-]
inactive: [10] 98 % of control | [11] 96 % of control | [12] 104 % of control

CCP(c1ccccc1)c1ccccc1
inactive: dose: 75.0 mg/kg/injection, schedule: Q01DX009 (ip), vehicle: saline sonified 101 % of control | dose: 100.0 mg/kg/injection, schedule: Q01DX001 (ip), vehicle: saline sonified 92 % of control | dose: 150.0 mg/kg/injection, schedule: Q01DX009 (ip), vehicle: saline sonified 94 % of control | dose: 200.0 mg/kg/injection, schedule: Q01DX001 (ip), vehicle: saline sonified 97 % of control | dose: 300.0 mg/kg/injection, schedule: Q01DX009 (ip), vehicle: saline sonified 106 % of control | dose: 400.0 mg/kg/injection, schedule: Q01DX001 (ip), vehicle: saline sonified 103 % of control

COc1cc2c(c3oc(=O)ccc13)C=CC(C)(C)O2
inactive: [3] 102 % of control | [4] 107 % of control | [5] 94 % of control

O=C(CCl)Nc1ccc([As](=O)(O)O)cc1
inactive: dose: 25.0 mg/kg/injection, schedule: Q01DX009 (ip), vehicle: Klucel (hydroxypropylcellulose) (HPC) 98 % of control | dose: 50.0 mg/kg/injection, schedule: Q01DX009 (ip), vehicle: Klucel (hydroxypropylcellulose) (HPC) 91 % of control | [13] 94 % of control | [3] 97 % of control

CN(C(=O)c1c(Cl)[nH]c2ccccc12)c1ccccc1
inactive: dose: 25.0 mg/kg/injection, schedule: Q04DX003 (ip), vehicle: Klucel (hydroxypropylcellulose) (HPC) 96 % of control | [13] 95 % of control | [3] 90 % of control

O=[N+]([O-])c1ccc(O)cc1
inactive: dose: 12.5 mg/kg/injection, schedule: Q04DX003 (ip), vehicle: saline + alcohol 103 % of control | dose: 25.0 mg/kg/injection, schedule: Q04DX003 (ip), vehicle: saline + alcohol 100 % of control | dose: 50.0 mg/kg/injection, schedule: Q04DX003 (ip), vehicle: saline + alcohol 108 % of control | [2] 113 % of control | dose: 100.0 mg/kg/injection, schedule: Q04DX002 (ip), vehicle: saline with Tween-80 102 % of control | [6] 101 % of control | dose: 200.0 mg/kg/injection, schedule: Q04DX002 (ip), vehicle: saline with Tween-80 91 % of control

Cc1ccc2c(c1)CC(C)([CH2][Hg][Cl])O2 (stereo unspecified)
inactive: dose: 3.0 mg/kg/injection, schedule: Q01DX009 (ip), vehicle: Klucel (hydroxypropylcellulose) (HPC) 91 % of control | dose: 3.0 mg/kg/injection, schedule: Q04DX003 (ip), vehicle: Klucel (hydroxypropylcellulose) (HPC) 90 % of control | dose: 6.0 mg/kg/injection, schedule: Q01DX009 (ip), vehicle: Klucel (hydroxypropylcellulose) (HPC) 91 % of control | dose: 6.0 mg/kg/injection, schedule: Q04DX003 (ip), vehicle: Klucel (hydroxypropylcellulose) (HPC) 87 % of control | dose: 12.0 mg/kg/injection, schedule: Q04DX003 (ip), vehicle: Klucel (hydroxypropylcellulose) (HPC) 92 % of control

C(=Nc1cccnc1)c1c[nH]c2ccccc12
inactive: [10] 95 % of control | [11] 86 % of control | [12] 89 % of control

CC(C)(Cl)CNC(=O)c1ccc([N+](=O)[O-])cc1
inactive: [10] 92 % of control | [3] 107 % of control | [11] 96 % of control | [4] 94 % of control | [12] 91 % of control | [5] 92 % of control
